Calls of active or inactive are those of the source.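 How the source made its calls: active means Compounds that kill half the cells at a concentration of 5 micromolar or below, from the fitted or estimated CC50; inactive means CC50 above 5 micromolar.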
Test system: Jurkat E6.1 viability, ATP luminescence, 48 h
Experiment: viability loss in Jurkat T cells – cell-based, ATP luminescence, 48 h, 60K MLSMR, cytotoxicity control, dose response (AID 464)

For `CCCNc1nc2c(c(=O)n(C)c(=O)n2C)n1CCC(C)C`, the CC50 was 11.9 µM (inactive).
With `CCOc1ccccc1C1CC(=O)NC2=C1C(=O)CCC2` (configuration not stated) the CC50 was 3.6 µM.
